Measurements as given in the NIST ThermoML archive (doi:10.1016/j.fluid.2007.07.016).

Test: xn = mol fraction of the nth substance listed
Conditions: 101 kPa, Liquid; for viscosity: Capillary tube (Ostwald / Ubbelohde) method; for speed of sound: Linear variable-path acoustic interferometer

C1CCOC1 [tetrahydrofuran] + c1ccccc1
Conditions | speed of sound, 288.15 K [m/s] | speed of sound, 298.15 K [m/s] | speed of sound, 308.15 K [m/s] | speed of sound, 318.15 K [m/s] | viscosity, 288.15 K [mPa·s] | viscosity, 298.15 K [mPa·s] | viscosity, 308.15 K [mPa·s] | viscosity, 318.15 K [mPa·s]
x1 = 0.0754 | 1351.7 | 1302.5 | 1256 | 1206.1 | 0.6847 | 0.5973 | 0.536 | 0.4667
x1 = 0.1518 | 1350.7 | 1301.4 | 1254.7 | 1205.1 | 0.6762 | 0.5921 | 0.533 | 0.4665
x1 = 0.223 | 1349.8 | 1300.6 | 1253.6 | 1204.3 | 0.6673 | 0.5863 | 0.529 | 0.4659
x1 = 0.2962 | 1348.5 | 1299.3 | 1252.2 | 1203.2 | 0.6573 | 0.5793 | 0.5237 | 0.4637
x1 = 0.3556 | 1347.4 | 1298.4 | 1251.3 | 1202.5 | 0.6484 | 0.5728 | 0.5186 | 0.4609
x1 = 0.4128 | 1346.3 | 1297.5 | 1250.3 | 1201.8 | 0.6394 | 0.5659 | 0.5128 | 0.4574
x1 = 0.4812 | 1344.6 | 1296 | 1248.8 | 1200.7 | 0.6277 | 0.5568 | 0.505 | 0.4522
x1 = 0.5506 | 1342.7 | 1294.3 | 1247.1 | 1199.4 | 0.6151 | 0.5467 | 0.4961 | 0.4457
x1 = 0.6219 | 1340.5 | 1292.4 | 1245.1 | 1197.8 | 0.6013 | 0.5353 | 0.4858 | 0.4379
x1 = 0.6884 | 1338 | 1290.2 | 1243 | 1196.1 | 0.5875 | 0.5237 | 0.4752 | 0.4295
x1 = 0.7512 | 1335.3 | 1287.9 | 1240.8 | 1194.4 | 0.5739 | 0.512 | 0.4643 | 0.4207
x1 = 0.8119 | 1332.7 | 1285.5 | 1238.6 | 1192.7 | 0.56 | 0.4999 | 0.4529 | 0.4112
x1 = 0.8792 | 1329.3 | 1282.7 | 1236.1 | 1190.7 | 0.5439 | 0.4857 | 0.4394 | 0.3996
x1 = 0.9388 | 1326.3 | 1280.1 | 1233.8 | 1188.9 | 0.5289 | 0.4724 | 0.4265 | 0.3885
x1 = 1 | 1323.1 | 1277.6 | 1231.5 | 1187.2 | 0.5129 | 0.458 | 0.4125 | 0.3762

Cc1ccc(C)cc1 [1,4-dimethylbenzene] + C1CCOC1
Conditions | speed of sound, 288.15 K [m/s] | speed of sound, 298.15 K [m/s] | speed of sound, 308.15 K [m/s] | speed of sound, 318.15 K [m/s] | viscosity, 288.15 K [mPa·s] | viscosity, 298.15 K [mPa·s] | viscosity, 308.15 K [mPa·s] | viscosity, 318.15 K [mPa·s]
x2 = 0 | 1357.5 | 1316.4 | 1268 | 1230.3 | 0.7084 | 0.611 | 0.5501 | 0.4912
x2 = 0.084 | 1356 | 1314.1 | 1265.7 | 1227.2 | 0.6971 | 0.6047 | 0.5453 | 0.4891
x2 = 0.1716 | 1354.2 | 1311.7 | 1263.2 | 1224 | 0.6842 | 0.5954 | 0.5385 | 0.4849
x2 = 0.2322 | 1353.1 | 1310.1 | 1261.6 | 1221.9 | 0.6755 | 0.5895 | 0.5339 | 0.4819
x2 = 0.2934 | 1351.7 | 1308.3 | 1259.9 | 1219.6 | 0.6656 | 0.5825 | 0.528 | 0.4777
x2 = 0.3548 | 1350.2 | 1306.5 | 1258.1 | 1217.3 | 0.6552 | 0.5748 | 0.5214 | 0.4727
x2 = 0.4284 | 1348.1 | 1304 | 1255.7 | 1214.5 | 0.642 | 0.5648 | 0.5127 | 0.4658
x2 = 0.4896 | 1346.2 | 1301.8 | 1253.7 | 1212 | 0.6304 | 0.5558 | 0.5047 | 0.4592
x2 = 0.5518 | 1344.1 | 1299.4 | 1251.5 | 1209.3 | 0.6181 | 0.5461 | 0.4959 | 0.4518
x2 = 0.6201 | 1341.5 | 1296.6 | 1248.8 | 1206.2 | 0.6039 | 0.5347 | 0.4854 | 0.4428
x2 = 0.6825 | 1338.9 | 1293.7 | 1246.2 | 1203.3 | 0.5904 | 0.5237 | 0.4751 | 0.4337
x2 = 0.7414 | 1336.3 | 1290.9 | 1243.6 | 1200.4 | 0.5767 | 0.5127 | 0.4647 | 0.4245
x2 = 0.8102 | 1333.1 | 1287.6 | 1240.6 | 1197 | 0.5609 | 0.4991 | 0.4518 | 0.4128
x2 = 0.8756 | 1329.8 | 1284.3 | 1237.5 | 1193.7 | 0.545 | 0.4855 | 0.4388 | 0.4009
x2 = 0.9409 | 1326.4 | 1280.8 | 1234.4 | 1190.4 | 0.5284 | 0.4713 | 0.425 | 0.3881
